For one assay, the system named is Ixodes ricinus. The assay is described as follows: Inhibition of Ixodes ricinus CatD expressed in Escherichia coli BL21(DE3) at 50 nM using Abz-Lys-Pro-Ala-Glu-Phe-Nph-Ala-Leu as substrate preincubated for 10 mins followed by substrate addition and measured by FRET assay.
For the next assay, the species on record is Sus scrofa. Briefly: Inhibition of porcine pepsin at 50 nM using Abz-Lys-Pro-Ala-Glu-Phe-Nph-Ala-Leu as substrate preincubated for 10 mins followed by substrate addition and measured by FRET assay.
Assay [1] addresses Protease (Human immunodeficiency virus 1) (UniProt Q9YQ12). Briefly: Inhibition of HIV1 protease at 50 nM using Abz-Tyr-Ile-Nle-Nph-Gln-Arg as substrate preincubated for 10 mins followed by substrate addition and measured by FRET assay.
The target in assay [2] is Beta-secretase 1 (Homo sapiens) (UniProt P56817). Briefly: Inhibition of recombinant human C-terminal 10His-tagged BACE1 expressed in mouse NS0 cells at 5 uM using Mca-Ser-Glu-Val-Asn-Leu-Asp-Ala-Glu-Phe-Arg-Lys(Dnp)-Arg-Arg as substrate preincubated for 10 mins followed by substrate addition and measured by FRET assay.
Sequence of Beta-secretase 1 (Homo sapiens) (P56817 whole entry): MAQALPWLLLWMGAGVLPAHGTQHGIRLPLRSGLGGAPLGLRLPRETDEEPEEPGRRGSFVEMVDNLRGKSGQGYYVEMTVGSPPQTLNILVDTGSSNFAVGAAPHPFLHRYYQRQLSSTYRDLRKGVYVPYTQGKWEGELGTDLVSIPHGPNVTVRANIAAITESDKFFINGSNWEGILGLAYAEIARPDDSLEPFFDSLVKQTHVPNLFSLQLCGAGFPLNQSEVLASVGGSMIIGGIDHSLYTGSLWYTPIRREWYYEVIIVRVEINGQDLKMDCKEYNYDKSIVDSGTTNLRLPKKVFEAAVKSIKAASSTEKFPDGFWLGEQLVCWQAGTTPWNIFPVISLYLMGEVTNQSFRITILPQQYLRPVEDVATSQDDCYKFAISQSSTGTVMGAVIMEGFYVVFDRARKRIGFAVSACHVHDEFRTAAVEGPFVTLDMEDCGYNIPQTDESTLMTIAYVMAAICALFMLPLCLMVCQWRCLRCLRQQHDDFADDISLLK
In assay [3] the target is T1, Renin (Homo sapiens) (UniProt P00797).
T1 sequence (whole entry): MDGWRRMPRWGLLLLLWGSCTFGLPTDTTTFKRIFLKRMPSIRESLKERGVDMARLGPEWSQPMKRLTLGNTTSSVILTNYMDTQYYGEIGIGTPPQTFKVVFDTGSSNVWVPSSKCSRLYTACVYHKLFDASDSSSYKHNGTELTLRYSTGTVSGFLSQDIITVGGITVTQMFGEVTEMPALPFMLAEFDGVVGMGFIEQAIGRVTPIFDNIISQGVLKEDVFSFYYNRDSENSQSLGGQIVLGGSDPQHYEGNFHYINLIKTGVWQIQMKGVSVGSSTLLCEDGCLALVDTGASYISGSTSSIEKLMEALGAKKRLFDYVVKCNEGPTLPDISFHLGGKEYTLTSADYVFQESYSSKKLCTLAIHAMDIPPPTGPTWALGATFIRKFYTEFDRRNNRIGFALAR
Briefly: Inhibition of recombinant human N-terminal FLAG-tagged renin (67 to 406 residues) expressed in HEK cells at 5 uM using Arg-Glu(EDANS)-Ile-His-Pro-Phe-His-Leu-Val-Ile-His-Thr-Lys(Dabcyl)-Arg as substrate preincubated for 10 mins followed by substrate addition and measured by FRET assay.

The target of another assay is Cathepsin D (Homo sapiens, UniProt P07339). Briefly: Inhibition of human placenta CatD using Abz-Lys-Pro-Ala-Glu-Phe-Nph-Ala-Leu as substrate preincubated for 10 mins followed by substrate addition and measured by FRET assay.
Sequence of Cathepsin D (P07339 65-162 limits assumed): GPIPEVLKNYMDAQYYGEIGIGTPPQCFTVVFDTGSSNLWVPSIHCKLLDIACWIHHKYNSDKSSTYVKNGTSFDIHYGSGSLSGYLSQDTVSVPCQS
Sequence of Cathepsin D (P07339 169-412 limits assumed): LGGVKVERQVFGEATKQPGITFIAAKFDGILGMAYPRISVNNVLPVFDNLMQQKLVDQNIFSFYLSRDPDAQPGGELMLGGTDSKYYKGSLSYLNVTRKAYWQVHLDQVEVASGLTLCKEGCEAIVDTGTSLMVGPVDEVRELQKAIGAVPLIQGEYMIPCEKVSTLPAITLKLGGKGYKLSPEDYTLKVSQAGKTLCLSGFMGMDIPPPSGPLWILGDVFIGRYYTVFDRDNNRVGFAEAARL
In assay [4] the target is Beta-secretase 1 (Homo sapiens) (UniProt P56817). The assay is described as follows: Inhibition of recombinant human C-terminal 10His-tagged BACE1 expressed in mouse NS0 cells at 50 nM using Mca-Ser-Glu-Val-Asn-Leu-Asp-Ala-Glu-Phe-Arg-Lys(Dnp)-Arg-Arg as substrate preincubated for 10 mins followed by substrate addition and measured by FRET assay.
Assay [5] concerns the target Protease (Human immunodeficiency virus 1) (UniProt Q9YQ12). Briefly: Inhibition of HIV1 protease at 5 uM using Abz-Tyr-Ile-Nle-Nph-Gln-Arg as substrate preincubated for 10 mins followed by substrate addition and measured by FRET assay.
Assay [6] has as its target Saccharopepsin (Saccharomyces cerevisiae S288c) (UniProt P07267). The assay is described as follows: Inhibition of Baker's yeast proteinase A at 50 nM using Abz-Lys-Pro-Ala-Glu-Phe-Nph-Ala-Leu as substrate preincubated for 10 mins followed by substrate addition and measured by FRET assay.
Assay [7] concerns the target T1, Renin (Homo sapiens). Briefly: Inhibition of recombinant human N-terminal FLAG-tagged renin (67 to 406 residues) expressed in HEK cells at 50 nM using Arg-Glu(EDANS)-Ile-His-Pro-Phe-His-Leu-Val-Ile-His-Thr-Lys(Dabcyl)-Arg as substrate preincubated for 10 mins followed by substrate addition and measured by FRET assay.

The text below walks through data of ChEMBL document CHEMBL4321885, “Biomimetic Macrocyclic Inhibitors of Human Cathepsin D: Structure-Activity Relationship and Binding Mode Analysis” (J Med Chem, 2020).

Activity calls are given as the source filed them. No cut-off for these calls is given here.

Sequence of Protease (Human immunodeficiency virus 1) (Q9YQ12 as listed by the source): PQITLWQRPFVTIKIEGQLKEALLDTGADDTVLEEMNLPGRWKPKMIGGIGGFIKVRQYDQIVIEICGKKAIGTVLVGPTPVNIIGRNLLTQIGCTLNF
Sequence of Saccharopepsin (Saccharomyces cerevisiae S288c) (P07267 whole entry, the tested form may be a part): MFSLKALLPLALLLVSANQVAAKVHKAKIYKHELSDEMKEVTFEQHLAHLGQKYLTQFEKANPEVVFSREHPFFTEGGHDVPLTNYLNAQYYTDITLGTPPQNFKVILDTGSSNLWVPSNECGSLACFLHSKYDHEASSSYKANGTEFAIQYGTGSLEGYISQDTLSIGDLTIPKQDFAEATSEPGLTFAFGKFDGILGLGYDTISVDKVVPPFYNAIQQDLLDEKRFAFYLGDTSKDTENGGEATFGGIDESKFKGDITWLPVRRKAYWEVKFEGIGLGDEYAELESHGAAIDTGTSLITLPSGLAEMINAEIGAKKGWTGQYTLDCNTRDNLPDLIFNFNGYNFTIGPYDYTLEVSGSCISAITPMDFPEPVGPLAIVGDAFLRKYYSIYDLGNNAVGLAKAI

One may read the IC50 as the concentration that gives 50% inhibition. Low values mean higher potency, high ones lower potency. For `CC(C)C[C@@H]1NC(=O)CCCCCCCCCCCNC(=O)[C@H](C(C)C)NC(=O)C[C@@H]1O`, the inhibition result (in the assay on Ixodes ricinus; in the assay listed under Sus scrofa; in [2]; at Renin (Homo sapiens) [3]; in assay [5]; in assay [6]) was “Active” throughout. Besides, the inhibition entry (in assay [1]; in assay [4]; at Renin (Homo sapiens) [7]) was “inactive” in each case. This molecule also had an IC50 on Cathepsin D of 22 nM.
`O=C1C[C@H](O)[C@H](Cc2ccccc2)NC(=O)CCCCCCCCCCCNC(=O)[C@H](Cc2ccccc2)N1`: the inhibition entry (in the assay with Ixodes ricinus; in the assay filed under Sus scrofa; in assay [2]; at Renin (Homo sapiens) [3]; in [5]; in assay [6]) was “Active” throughout. Besides, the inhibition result (in assay [1]; in [4]; at Renin (Homo sapiens) [7]) was “inactive” each time. The half-maximal inhibitory concentration (IC50) against Cathepsin D is 15 nM.
As to `O=C1C[C@H](O)[C@H](Cc2ccccc2)NC(=O)CCCCCCCCCCCNC(=O)[C@H](c2ccccc2)N1`, the inhibition result (in the assay with Ixodes ricinus; in the assay filed under Sus scrofa; in assay [2]; on Renin (Homo sapiens) [3]; in assay [5]; in assay [6]) was “Active” each time. For the same molecule, the inhibition entry (in [1]; in [4]; on Renin (Homo sapiens) [7]) was “inactive” throughout. On Cathepsin D, this molecule returned an IC50 of 27 nM.
Consider `CC(C)[C@@H]1NC(=O)C[C@H](O)[C@H](CC2CCCCC2)NC(=O)CCCCCCCCCCCNC1=O`, for which the inhibition entry (in the assay with Ixodes ricinus; in the assay filed under Sus scrofa; in assay [2]; on Renin (Homo sapiens) [3]; in [5]; in [6]) was “Active” throughout. The inhibition entry (in [1]; in assay [4]; at Renin (Homo sapiens) [7]) was “inactive” throughout. On Cathepsin D, the IC50 turned out to be 9 nM.
Regarding `CC(C)[C@@H]1NC(=O)C[C@H](O)[C@H](Cc2ccc(OCc3ccccc3)cc2)NC(=O)CCCCCCCCCCCNC1=O`, the inhibition result (in the assay on Ixodes ricinus; in assay [2]; on Renin (Homo sapiens) [3]; in [5]; in assay [6]) was “Active” in each case. Moreover, the inhibition result (in assay [1]; in assay [4]; at Renin (Homo sapiens) [7]) was “inactive” in each case. Further, at Cathepsin D, half-maximal inhibition (IC50) was put at 55 nM.
Regarding `CC(C)[C@@H]1NC(=O)C[C@H](O)[C@H](Cc2c[nH]c3ccccc23)NC(=O)CCCCCCCCCCCNC1=O`, the inhibition entry (with Ixodes ricinus; in the assay listed under Sus scrofa; in assay [2]; at Renin (Homo sapiens) [3]; in [5]; in [6]) was “Active” in each case. In addition, the inhibition result (in assay [1]; in assay [4]; on Renin (Homo sapiens) [7]) was “inactive” throughout. Further, at Cathepsin D, half-maximal inhibition (IC50) was put at 190 nM.
On to `C[C@@H](O)[C@@H]1NC(=O)C[C@H](O)[C@H](Cc2ccccc2)NC(=O)CCCCCCCCCCCNC1=O`, for which the inhibition entry (in the assay with Ixodes ricinus; in [2]; on Renin (Homo sapiens) [3]; in [5]; in [6]) was “Active” each time. For the same molecule, the inhibition result (in assay [1]; in [4]; on Renin (Homo sapiens) [7]) was “inactive” in each case. Also, it took 500 nM to reach half-maximal inhibition on Cathepsin D (IC50).
With `CC(C)[C@@H]1NC(=O)C[C@H](O)[C@H](Cc2ccc(F)cc2)NC(=O)CCCCCCCCCCCNC1=O`, the inhibition result (in the assay on Ixodes ricinus; in [2]; at Renin (Homo sapiens) [3]; in assay [5]; in [6]) was “Active” throughout. Besides, the inhibition result (in assay [1]; in [4]; at Renin (Homo sapiens) [7]) was “inactive” each time. On Cathepsin D, this molecule returned an IC50 of 4.7 nM.
In the case of `CC(C)[C@@H]1NC(=O)C[C@H](O)[C@H](Cc2ccc3ccccc3c2)NC(=O)CCCCCCCCCCCNC1=O`, the inhibition entry (in the assay with Ixodes ricinus; in assay [2]; at Renin (Homo sapiens) [3]; in assay [5]; in assay [6]) was “Active” each time. Besides, the inhibition entry (in [1]; in assay [4]; on Renin (Homo sapiens) [7]) was “inactive” each time. Also, at Cathepsin D, the IC50 was 0.6 nM.
In the case of `CC(C)[C@@H]1NC(=O)C[C@H](O)[C@H](Cc2cscn2)NC(=O)CCCCCCCCCCCNC1=O`, the inhibition entry (with Ixodes ricinus; in assay [2]; at Renin (Homo sapiens) [3]; in [5]; in assay [6]) was “Active” throughout. Besides, the inhibition entry (in [1]; in assay [4]; on Renin (Homo sapiens) [7]) was “inactive” in each case. Besides, half-maximal inhibition on Cathepsin D (IC50) was put at 600 nM.
On to `CC[C@@H](C)[C@@H]1NC(=O)C[C@H](O)[C@H](Cc2ccccc2)NC(=O)CCCCCCCCCCCNC1=O`, for which the inhibition entry (in the assay on Ixodes ricinus; in the assay filed under Sus scrofa; in [2]; on Renin (Homo sapiens) [3]; in assay [5]; in assay [6]) was “Active” each time. Also, the inhibition entry (in assay [1]; in assay [4]; on Renin (Homo sapiens) [7]) was “inactive” each time. This molecule also came in with an IC50 against Cathepsin D of 3.8 nM.
As for `CC(C)[C@@H]1NC(=O)C[C@H](O)[C@H](Cc2ccccc2)NC(=O)CCCCCCCCCCCCCNC1=O`, the inhibition entry (in the assay with Ixodes ricinus; in the assay listed under Sus scrofa; in [2]; at Renin (Homo sapiens) [3]; in assay [5]; in [6]) was “Active” throughout. For the same molecule, the inhibition entry (in assay [1]; in [4]; at Renin (Homo sapiens) [7]) was “inactive” in each case. It took 11 nM to reach half-maximal inhibition against Cathepsin D (IC50).
Consider `CC(C)[C@@H]1NC(=O)C[C@H](O)[C@H](Cc2ccccc2)NC(=O)CCCCCCCCCCNC1=O`, for which the inhibition entry (with Ixodes ricinus; in [2]; at Renin (Homo sapiens) [3]; in [5]; in [6]) was “Active” each time. Besides, the inhibition entry (in assay [1]; in assay [4]; on Renin (Homo sapiens) [7]) was “inactive” in each case. The molecule further returned an IC50 against Cathepsin D of 40 nM.
Regarding `CC(C)[C@@H]1NC(=O)C[C@H](O)[C@H](Cc2ccccc2)NC(=O)CCCCCCCCCCCCCCNC1=O`, the inhibition entry (with Ixodes ricinus; in assay [2]; at Renin (Homo sapiens) [3]; in [5]; in assay [6]) was “Active” each time. The inhibition entry (in assay [1]; in assay [4]; at Renin (Homo sapiens) [7]) was “inactive” in each case. The IC50 at Cathepsin D was 32 nM.
